According to the NIST ThermoML archive (doi:10.1016/j.jct.2009.12.002):

Assay: molar heat capacity at constant pressure
Conditions: Liquid

CC(C)CCCCCCCOC(=O)c1ccccc1C(=O)OCCCCCCCC(C)C
molar heat capacity at constant pressure [J/K/mol]
Conditions | Flow calorimetry | Numerical integration with Cp at 1 atm and U at elevated pressures
293.15 K, 100 kPa | 754.86 | 755.75
293.15 K, 10000 kPa | – | 754.86
293.15 K, 20000 kPa | – | 753.52
293.15 K, 30000 kPa | – | 753.07
293.15 K, 40000 kPa | – | 752.18
293.15 K, 50000 kPa | – | 751.73
293.15 K, 60000 kPa | – | 751.29
293.15 K, 70000 kPa | – | 750.84
293.15 K, 80000 kPa | – | 750.84
293.15 K, 90000 kPa | – | 750.39
293.15 K, 100000 kPa | – | 750.39
293.15 K, 110000 kPa | – | 749.95
293.15 K, 120000 kPa | – | 749.95
293.15 K, 130000 kPa | – | 749.95
293.15 K, 140000 kPa | – | 749.95
303.15 K, 100 kPa | – | 771.39
303.15 K, 10000 kPa | – | 770.05
303.15 K, 20000 kPa | – | 768.71
303.15 K, 30000 kPa | – | 767.81
303.15 K, 40000 kPa | – | 767.37
303.15 K, 50000 kPa | – | 766.92
303.15 K, 60000 kPa | – | 766.47
303.15 K, 70000 kPa | – | 766.03
303.15 K, 80000 kPa | – | 765.58
303.15 K, 90000 kPa | – | 765.58
303.15 K, 100000 kPa | – | 765.13
303.15 K, 110000 kPa | – | 765.13
303.15 K, 120000 kPa | – | 765.13
303.15 K, 130000 kPa | – | 765.13
303.15 K, 140000 kPa | – | 765.13
313.15 K, 100 kPa | 788.81 | 786.57
313.15 K, 10000 kPa | – | 785.23
313.15 K, 20000 kPa | – | 784.34
313.15 K, 30000 kPa | – | 783.45
313.15 K, 40000 kPa | – | 782.55
313.15 K, 50000 kPa | – | 782.11
313.15 K, 60000 kPa | – | 781.66
313.15 K, 70000 kPa | – | 781.21
313.15 K, 80000 kPa | – | 781.21
313.15 K, 90000 kPa | – | 780.77
313.15 K, 100000 kPa | – | 780.77
313.15 K, 110000 kPa | – | 780.77
313.15 K, 120000 kPa | – | 780.77
313.15 K, 130000 kPa | – | 780.32
313.15 K, 140000 kPa | – | 780.32
323.15 K, 100 kPa | – | 802.65
323.15 K, 10000 kPa | – | 801.31
323.15 K, 20000 kPa | – | 799.97
323.15 K, 30000 kPa | – | 799.08
323.15 K, 40000 kPa | – | 798.63
323.15 K, 50000 kPa | – | 797.74
323.15 K, 60000 kPa | – | 797.29
323.15 K, 70000 kPa | – | 797.29
323.15 K, 80000 kPa | – | 796.85
323.15 K, 90000 kPa | – | 796.4
323.15 K, 100000 kPa | – | 796.4
323.15 K, 110000 kPa | – | 796.4
323.15 K, 120000 kPa | – | 796.4
323.15 K, 130000 kPa | – | 796.4
323.15 K, 140000 kPa | – | 796.4
333.15 K, 100 kPa | 816.5 | 818.73
333.15 K, 10000 kPa | – | 817.39
333.15 K, 20000 kPa | – | 816.05
333.15 K, 30000 kPa | – | 815.16
333.15 K, 40000 kPa | – | 814.27
333.15 K, 50000 kPa | – | 813.82
333.15 K, 60000 kPa | – | 813.37
333.15 K, 70000 kPa | – | 812.93
333.15 K, 80000 kPa | – | 812.93
333.15 K, 90000 kPa | – | 812.48
333.15 K, 100000 kPa | – | 812.48
333.15 K, 110000 kPa | – | 812.48
333.15 K, 120000 kPa | – | 812.48
333.15 K, 130000 kPa | – | 812.48
333.15 K, 140000 kPa | – | 812.48
343.15 K, 100 kPa | – | 835.26
343.15 K, 10000 kPa | – | 833.92
343.15 K, 20000 kPa | – | 832.58
343.15 K, 30000 kPa | – | 831.69
343.15 K, 40000 kPa | – | 830.79
343.15 K, 50000 kPa | – | 830.35
343.15 K, 60000 kPa | – | 829.9
343.15 K, 70000 kPa | – | 829.45
343.15 K, 80000 kPa | – | 829.01
343.15 K, 90000 kPa | – | 829.01
343.15 K, 100000 kPa | – | 829.01
343.15 K, 110000 kPa | – | 829.01
343.15 K, 120000 kPa | – | 829.01
343.15 K, 130000 kPa | – | 828.56
343.15 K, 140000 kPa | – | 829.01
353.15 K, 100 kPa | 852.23 | 852.23
353.15 K, 10000 kPa | – | 850.45
353.15 K, 20000 kPa | – | 849.11
353.15 K, 30000 kPa | – | 848.21
353.15 K, 40000 kPa | – | 847.32
353.15 K, 50000 kPa | – | 846.87
353.15 K, 60000 kPa | – | 846.43
353.15 K, 70000 kPa | – | 845.98
353.15 K, 80000 kPa | – | 845.98
353.15 K, 90000 kPa | – | 845.53
353.15 K, 100000 kPa | – | 845.53
353.15 K, 110000 kPa | – | 845.53
353.15 K, 120000 kPa | – | 845.53
353.15 K, 130000 kPa | – | 845.53
353.15 K, 140000 kPa | – | 845.53
363.15 K, 100 kPa | – | 869.21
363.15 K, 10000 kPa | – | 867.42
363.15 K, 20000 kPa | – | 866.08
363.15 K, 30000 kPa | – | 865.19
363.15 K, 40000 kPa | – | 864.29
363.15 K, 50000 kPa | – | 863.85
363.15 K, 60000 kPa | – | 863.4
363.15 K, 70000 kPa | – | 862.95
363.15 K, 80000 kPa | – | 862.95
363.15 K, 90000 kPa | – | 862.95
363.15 K, 100000 kPa | – | 862.51
363.15 K, 110000 kPa | – | 862.51
363.15 K, 120000 kPa | – | 862.51
363.15 K, 130000 kPa | – | 862.51
363.15 K, 140000 kPa | – | 862.51
373.15 K, 100 kPa | 893.77 | 886.62
373.15 K, 10000 kPa | – | 884.84
373.15 K, 20000 kPa | – | 883.5
373.15 K, 30000 kPa | – | 882.6
373.15 K, 40000 kPa | – | 881.71
373.15 K, 50000 kPa | – | 881.26
373.15 K, 60000 kPa | – | 880.82
373.15 K, 70000 kPa | – | 880.37
373.15 K, 80000 kPa | – | 880.37
373.15 K, 90000 kPa | – | 879.93
373.15 K, 100000 kPa | – | 879.93
373.15 K, 110000 kPa | – | 879.93
373.15 K, 120000 kPa | – | 879.93
373.15 K, 130000 kPa | – | 879.93
373.15 K, 140000 kPa | – | 879.93
383.15 K, 100 kPa | – | 904.49
383.15 K, 10000 kPa | – | 902.7
383.15 K, 20000 kPa | – | 901.36
383.15 K, 30000 kPa | – | 900.02
383.15 K, 40000 kPa | – | 899.58
383.15 K, 50000 kPa | – | 898.68
383.15 K, 60000 kPa | – | 898.24
383.15 K, 70000 kPa | – | 898.24
383.15 K, 80000 kPa | – | 897.79
383.15 K, 90000 kPa | – | 897.79
383.15 K, 100000 kPa | – | 897.79
383.15 K, 110000 kPa | – | 897.79
383.15 K, 120000 kPa | – | 897.79
383.15 K, 130000 kPa | – | 897.79
383.15 K, 140000 kPa | – | 897.79
393.15 K, 100 kPa | 914.32 | 922.8
393.15 K, 10000 kPa | – | 920.57
393.15 K, 20000 kPa | – | 919.23
393.15 K, 30000 kPa | – | 918.34
393.15 K, 40000 kPa | – | 917.44
393.15 K, 50000 kPa | – | 917
393.15 K, 60000 kPa | – | 916.55
393.15 K, 70000 kPa | – | 916.1
393.15 K, 80000 kPa | – | 916.1
393.15 K, 90000 kPa | – | 915.66
393.15 K, 100000 kPa | – | 915.66
393.15 K, 110000 kPa | – | 915.66
393.15 K, 120000 kPa | – | 915.66
393.15 K, 130000 kPa | – | 915.66
393.15 K, 140000 kPa | – | 916.1
403.15 K, 100 kPa | – | 941.12
403.15 K, 10000 kPa | – | 938.88
403.15 K, 20000 kPa | – | 937.54
403.15 K, 30000 kPa | – | 936.65
403.15 K, 40000 kPa | – | 935.76
403.15 K, 50000 kPa | – | 934.86
403.15 K, 60000 kPa | – | 934.86
403.15 K, 70000 kPa | – | 934.42
403.15 K, 80000 kPa | – | 934.42
403.15 K, 90000 kPa | – | 933.97
403.15 K, 100000 kPa | – | 933.97
403.15 K, 110000 kPa | – | 933.97
403.15 K, 120000 kPa | – | 933.97
403.15 K, 130000 kPa | – | 934.42
403.15 K, 140000 kPa | – | 934.42
413.15 K, 100 kPa | – | 959.88
413.15 K, 10000 kPa | – | 957.64
413.15 K, 20000 kPa | – | 956.3
413.15 K, 30000 kPa | – | 954.96
413.15 K, 40000 kPa | – | 954.07
413.15 K, 50000 kPa | – | 953.62
413.15 K, 60000 kPa | – | 953.18
413.15 K, 70000 kPa | – | 953.18
413.15 K, 80000 kPa | – | 952.73
413.15 K, 90000 kPa | – | 952.73
413.15 K, 100000 kPa | – | 952.73
413.15 K, 110000 kPa | – | 952.73
413.15 K, 120000 kPa | – | 952.73
413.15 K, 130000 kPa | – | 953.18
413.15 K, 140000 kPa | – | 953.18
423.15 K, 100 kPa | 981.32 | –
